According to patent US20250129370A1, “METHOD FOR REDUCING HEPATIC TRIGLYCERIDES” (ADAERATA, LIMITED PARTNERSHIP, priority 2022, published 2025):
Each block holds one molecule with its values, some of them ahead of it.

How the values were obtained:
apoB = apoB degradation pathway in WT and PCSK7-/- IHH cells with pathway inhibitors; assay type: cell-based, human
Experimental: FIGS. 7A-l: PCSK7 can bind apoB in the ER and acts as a molecular chaperone-like facilitating its secretion, and its absence leads to a rapid degradation of apoB by the proteasome. […] (FIG. 7A) Western blot (presented on gel and graphically) of apoB100 and PC7 protein levels in WT and PCSK7^−/− IHH cells. Levels are normalized to α-tubulin. (FIG. 7B) Western blot (presented on gel and graphically) of apoB100 and PC7 protein levels over time (0, 15 and 30 minutes) in WT and PCSK7^−/− IHH cells incubated with cycloheximide (CHX) to block de novo mRNA translation. Levels are normalized to α-tubulin. (FIG. 7C-D) Western blot (presented on gel and graphically) of cellular apoB levels in WT and PCSK7^−/− IHH cells incubated with brefeldin A (BFA) that blocks exit from the endoplasmic reticulum (ER), an autophagy inhibitor 3-methyladenine (3MA), proteasome inhibitors MG132, Lactacystin, DMSO or non treated (NT) controls. (FIG. 7E) Western blot (presented on gel) of cellular apoB levels and polyubiquitinated apoB100 in WT and PCSK7^−/− IHH cells incubated with Lactacystin. (FIG. 7F) Schematic representation of apoB100 and apoB21 protein. […]

[1] = system: 3′-UTR of human PCSK7 mRNAs; experiment: Dual-luciferase reporter assay, wild-type PCSK7 3′-UTR, HEK293T cells; assay type: cell-based; details: wild-type PCSK7 3′-UTR psiCHECK-2, HEK293T
Excerpt: The interactions between the miRNAs and their probable targets on PCSK7 were explored by cloning the potential target regions in psiCHECK-2™ (Promega, USA), a luciferase reporter vector. In psiCHECK-2™, hRluc, the Renilla luciferase gene, is located upstream of the target regions of interest cloned into the psiCHECK-2™ vector downstream of the Renilla gene. The region corresponding to the 3′-UTR of PCSK7 (926-nt sequences in length) that constituted the predicted miRNA response elements was PCR-amplified and cloned downstream of the Renilla luciferase gene in the psiCHECK-2™ vector (Promega, USA). […]
The HEK293T cells were co-transfected through the application of the wild-type psiCHECK-2, the wild-type PCSK7 3′-UTR, the mutant PCSK7 3′-UTR, and the miR-overexpressing vectors so that the direct interactions of the nominated miRNAs with PCSK7 3′-UTR could be investigated. […] Transfection efficiency was monitored by fluorescent microscopy (Nikon TE2000S, Japan) 36 hours following the procedure.
The PsiCHECK-2 reporter construct plasmid contained the Renilla luciferase gene upstream of PCSK7 3′-UTR and an independent firefly luciferase gene as an internal control for normalization. […] Then, LARII Reagent was added, and after 20 minutes, the firefly luciferase activity was measured as a control. Afterward, Renilla activity was determined using Stop & Glo Reagent. […]

PCSK7 mRNA [2] = experiment: PCSK7 mRNA qPCR after miRNA overexpression in Huh7 cells; assay type: cell-based, human; details: Huh7, 48 hours following transfection, vs mock vector
Experimental: (§1) RNA was isolated from the cells with the TRIzol™ Reagent (Invitrogen, USA) according to the manufacturer's instructions. The RNA samples were treated with RNase-free DNase I (Fermentas, USA) to eliminate any possible DNA contamination. Reverse transcription was performed using the PrimeScript™ First Strand cDNA Synthesis Kit (Takara, Japan) following the manufacturer's protocol. Briefly, one unit of the DNase I enzyme, 1 μL of a buffer, and 1 μg of total RNA were incubated for 30 minutes at 37° C. Then, 1 μL of 50 mM EDTA was added for enzyme inactivation and incubated at 65° C. for 10 minutes. Subsequently, 5 μL of DNase-treated RNA was added to the mix of 0.5 μL of the reverse-transcriptase enzyme, 2 μL of the reverse-transcriptase buffer, and 1 μL of a random hexamer and incubated for 15 minutes at 37° C., followed by 5 seconds at 85° C. for enzyme inactivation. Stem-loop RT-qPCR method was applied for evaluating the expression of miRNAs (Kramer, 2011). […]
(§2) All the reactions were repeated in duplicates. Next, melt curves were analyzed, with the mean threshold cycles used for further analyses. The relative expressions of the miRNAs and PCSK7 to RNU48 small nuclear RNA and/or GAPDH and β2m were calculated, respectively, via the 2-ΔΔCt method. […]

PCSK7 mRNA [3] = experiment: PCSK7 mRNA qPCR after miRNA overexpression in HEK293T cells; assay type: cell-based, human
Experimental: as §1, §2

[4] = molecular target: T1, endogenous apoB100 of IHH cells (human, UniProt P04114 28-4563); experiment: co-immunoprecipitation from IHH cell lysates with a human ApoB antibody, Western blot for the V5 tag (FIG. 7I)
T1 construct: Endogenous protein in lysates of human IHH cells; also called apolipoprotein B
T1 sequence (P04114 28-4563 limits assumed): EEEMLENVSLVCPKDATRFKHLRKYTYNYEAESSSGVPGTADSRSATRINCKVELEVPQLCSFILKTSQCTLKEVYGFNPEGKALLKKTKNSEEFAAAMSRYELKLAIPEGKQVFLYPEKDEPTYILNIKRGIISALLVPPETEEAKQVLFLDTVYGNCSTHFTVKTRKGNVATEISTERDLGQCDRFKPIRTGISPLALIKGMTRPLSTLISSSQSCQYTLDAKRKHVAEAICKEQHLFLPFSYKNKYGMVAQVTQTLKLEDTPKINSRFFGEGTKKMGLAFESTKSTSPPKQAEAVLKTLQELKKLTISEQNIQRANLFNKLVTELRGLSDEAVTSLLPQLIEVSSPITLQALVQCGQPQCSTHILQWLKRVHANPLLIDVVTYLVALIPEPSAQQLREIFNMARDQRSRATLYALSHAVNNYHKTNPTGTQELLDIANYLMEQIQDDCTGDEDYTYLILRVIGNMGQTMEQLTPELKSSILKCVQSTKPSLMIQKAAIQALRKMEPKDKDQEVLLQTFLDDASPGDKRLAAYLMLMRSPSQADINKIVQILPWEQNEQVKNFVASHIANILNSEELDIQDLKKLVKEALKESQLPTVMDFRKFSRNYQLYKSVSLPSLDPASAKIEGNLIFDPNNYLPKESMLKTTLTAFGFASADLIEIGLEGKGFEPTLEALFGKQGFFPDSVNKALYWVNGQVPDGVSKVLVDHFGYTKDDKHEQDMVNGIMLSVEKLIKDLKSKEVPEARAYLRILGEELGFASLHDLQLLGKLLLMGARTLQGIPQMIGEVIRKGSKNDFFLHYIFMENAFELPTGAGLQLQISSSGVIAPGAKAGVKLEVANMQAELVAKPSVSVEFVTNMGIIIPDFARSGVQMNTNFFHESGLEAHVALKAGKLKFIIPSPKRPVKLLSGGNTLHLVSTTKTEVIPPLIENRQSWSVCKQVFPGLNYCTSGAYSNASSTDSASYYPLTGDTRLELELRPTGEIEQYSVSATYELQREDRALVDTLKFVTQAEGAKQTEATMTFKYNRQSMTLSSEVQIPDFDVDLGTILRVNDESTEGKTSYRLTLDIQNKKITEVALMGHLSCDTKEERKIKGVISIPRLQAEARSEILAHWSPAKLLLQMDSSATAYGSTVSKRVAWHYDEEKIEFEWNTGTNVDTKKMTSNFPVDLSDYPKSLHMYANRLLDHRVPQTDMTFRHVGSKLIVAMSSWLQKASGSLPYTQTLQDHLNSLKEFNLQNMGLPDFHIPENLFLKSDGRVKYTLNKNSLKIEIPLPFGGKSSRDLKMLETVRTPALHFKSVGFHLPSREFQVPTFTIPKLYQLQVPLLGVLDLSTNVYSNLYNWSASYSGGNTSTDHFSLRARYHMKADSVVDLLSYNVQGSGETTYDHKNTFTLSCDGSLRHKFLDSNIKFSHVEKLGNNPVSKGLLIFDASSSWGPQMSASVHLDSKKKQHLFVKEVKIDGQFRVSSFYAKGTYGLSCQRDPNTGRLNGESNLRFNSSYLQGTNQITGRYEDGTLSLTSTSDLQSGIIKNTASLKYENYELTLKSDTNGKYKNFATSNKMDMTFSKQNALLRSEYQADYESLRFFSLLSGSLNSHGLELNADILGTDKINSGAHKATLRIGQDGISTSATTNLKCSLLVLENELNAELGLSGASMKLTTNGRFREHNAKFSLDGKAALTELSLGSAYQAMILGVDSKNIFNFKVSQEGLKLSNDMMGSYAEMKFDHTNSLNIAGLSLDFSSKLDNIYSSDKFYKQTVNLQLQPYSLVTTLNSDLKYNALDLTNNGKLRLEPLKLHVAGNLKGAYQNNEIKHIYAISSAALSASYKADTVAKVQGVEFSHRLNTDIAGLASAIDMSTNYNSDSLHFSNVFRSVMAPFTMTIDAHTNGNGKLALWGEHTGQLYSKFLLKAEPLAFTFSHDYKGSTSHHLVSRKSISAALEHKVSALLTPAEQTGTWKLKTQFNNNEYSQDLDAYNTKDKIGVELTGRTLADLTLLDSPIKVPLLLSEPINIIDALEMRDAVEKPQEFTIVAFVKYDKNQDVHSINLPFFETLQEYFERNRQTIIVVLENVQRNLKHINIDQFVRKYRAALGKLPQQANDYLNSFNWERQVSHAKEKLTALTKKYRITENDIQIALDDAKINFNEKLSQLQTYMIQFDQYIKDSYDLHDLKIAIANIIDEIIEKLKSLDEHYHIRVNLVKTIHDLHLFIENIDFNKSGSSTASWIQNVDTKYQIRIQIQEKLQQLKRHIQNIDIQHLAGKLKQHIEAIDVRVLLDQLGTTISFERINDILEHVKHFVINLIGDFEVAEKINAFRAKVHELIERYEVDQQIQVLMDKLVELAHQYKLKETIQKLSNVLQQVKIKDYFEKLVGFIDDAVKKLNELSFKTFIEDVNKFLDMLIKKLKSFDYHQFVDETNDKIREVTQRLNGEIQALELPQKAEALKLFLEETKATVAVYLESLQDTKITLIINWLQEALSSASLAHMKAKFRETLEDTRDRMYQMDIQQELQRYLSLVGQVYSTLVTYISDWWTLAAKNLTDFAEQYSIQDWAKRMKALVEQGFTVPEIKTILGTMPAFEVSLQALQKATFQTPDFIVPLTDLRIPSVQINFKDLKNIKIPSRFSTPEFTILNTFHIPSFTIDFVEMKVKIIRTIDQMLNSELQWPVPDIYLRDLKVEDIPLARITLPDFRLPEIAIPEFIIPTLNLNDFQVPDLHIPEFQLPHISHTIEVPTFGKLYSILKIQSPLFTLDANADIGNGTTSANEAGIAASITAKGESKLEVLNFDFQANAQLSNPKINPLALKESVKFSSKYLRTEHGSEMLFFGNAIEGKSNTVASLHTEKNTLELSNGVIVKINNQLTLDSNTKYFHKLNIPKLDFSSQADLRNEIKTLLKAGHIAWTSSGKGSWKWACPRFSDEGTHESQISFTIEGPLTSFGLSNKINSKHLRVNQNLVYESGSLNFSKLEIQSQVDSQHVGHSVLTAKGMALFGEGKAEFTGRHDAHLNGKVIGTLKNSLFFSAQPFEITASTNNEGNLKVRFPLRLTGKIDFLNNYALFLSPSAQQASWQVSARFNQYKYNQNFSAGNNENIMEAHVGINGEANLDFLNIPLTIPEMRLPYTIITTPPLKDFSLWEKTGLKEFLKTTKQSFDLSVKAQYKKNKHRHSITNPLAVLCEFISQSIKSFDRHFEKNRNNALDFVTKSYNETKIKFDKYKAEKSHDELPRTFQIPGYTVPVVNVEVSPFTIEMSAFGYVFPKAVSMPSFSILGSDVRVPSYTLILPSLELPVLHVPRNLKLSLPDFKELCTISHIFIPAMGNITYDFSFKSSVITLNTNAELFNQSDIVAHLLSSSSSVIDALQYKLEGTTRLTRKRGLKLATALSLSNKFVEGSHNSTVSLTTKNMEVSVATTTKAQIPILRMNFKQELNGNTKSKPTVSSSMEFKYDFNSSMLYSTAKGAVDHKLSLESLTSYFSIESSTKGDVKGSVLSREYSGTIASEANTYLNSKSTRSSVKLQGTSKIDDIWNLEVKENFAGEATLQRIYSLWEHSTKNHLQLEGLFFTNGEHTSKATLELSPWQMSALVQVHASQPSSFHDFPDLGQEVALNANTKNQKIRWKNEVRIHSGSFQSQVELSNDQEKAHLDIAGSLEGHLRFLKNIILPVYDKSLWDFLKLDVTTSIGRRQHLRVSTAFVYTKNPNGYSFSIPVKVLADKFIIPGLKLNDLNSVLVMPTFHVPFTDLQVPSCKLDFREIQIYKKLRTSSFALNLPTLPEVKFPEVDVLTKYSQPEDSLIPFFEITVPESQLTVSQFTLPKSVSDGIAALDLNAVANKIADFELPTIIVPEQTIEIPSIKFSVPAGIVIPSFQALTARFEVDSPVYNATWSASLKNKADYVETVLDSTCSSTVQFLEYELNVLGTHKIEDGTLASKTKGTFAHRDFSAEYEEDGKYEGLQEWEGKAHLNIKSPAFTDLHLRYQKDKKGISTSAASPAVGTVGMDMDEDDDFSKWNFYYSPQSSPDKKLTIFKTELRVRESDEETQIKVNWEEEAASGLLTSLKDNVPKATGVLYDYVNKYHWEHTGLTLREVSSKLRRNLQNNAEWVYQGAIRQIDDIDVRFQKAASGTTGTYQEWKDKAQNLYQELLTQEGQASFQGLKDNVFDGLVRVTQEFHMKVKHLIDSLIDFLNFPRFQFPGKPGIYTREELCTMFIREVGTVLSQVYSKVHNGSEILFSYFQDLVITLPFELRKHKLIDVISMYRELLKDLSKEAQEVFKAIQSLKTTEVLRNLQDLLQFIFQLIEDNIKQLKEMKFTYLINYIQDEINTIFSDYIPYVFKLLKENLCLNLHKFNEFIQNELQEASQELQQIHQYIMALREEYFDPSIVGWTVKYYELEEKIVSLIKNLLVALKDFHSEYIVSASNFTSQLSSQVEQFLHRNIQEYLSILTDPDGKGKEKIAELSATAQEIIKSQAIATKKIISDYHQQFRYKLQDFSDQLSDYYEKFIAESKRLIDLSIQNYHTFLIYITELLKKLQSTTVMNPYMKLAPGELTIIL

Molecule: C[C@H]1CCC/C=C/[C@@H]2C[C@H](O)C[C@H]2[C@H](O)/C=C/C(=O)O1 [BFA, brefeldin A]
inhibition of apoB degradation (apoB): absence of BFA inhibition

Molecule: miR-320a-3p: predicted PCSK7-targeting miRNA with one predicted target site, overexpressed from precursor vector (AAAAGCUGGGUUGAGAGGGCGA; miRNA expressed from a precursor vector, further chemistry not given here)
effect on luciferase activity [1]: no significant effect
effect on expression of PCSK7 mRNA (PCSK7 mRNA [2]): did not downregulate
effect on PCSK7 mRNA levels (PCSK7 mRNA [3]): no significant regulatory relationship

binding result [4]: no binding
B1: SKI-1 tagged with V5 (enzyme, UniProt Q14703 187-1052, looked up)
chain: RAIPRQVAQTLQADVLWQMGYTGANVRVAVFDTGLSEKHPHFKNVKERTNWTNERTLDDGLGHGTFVAGVIASMRECQGFAPDAELHIFRVFTNNQVSYTSWFLDAFNYAILKKIDVLNLSIGGPDFMDHPFVDKVWELTANNVIMVSAIGNDGPLYGTLNNPADQMDVIGVGGIDFEDNIARFSSRGMTTWELPGGYGRMKPDIVTYGAGVRGSGVKGGCRALSGTSVASPVVAGAVTLLVSTVQKRELVNPASMKQALIASARRLPGVNMFEQGHGKLDLLRAYQILNSYKPQASLSPSYIDLTECPYMWPYCSQPIYYGGMPTVVNVTILNGMGVTGRIVDKPDWQPYLPQNGDNIEVAFSYSSVLWPWSGYLAISISVTKKAASWEGIAQGHVMITVASPAETESKNGAEQTSTVKLPIKVKIIPTPPRSKRVLWDQYHNLRYPPGYFPRDNLRMKNDPLDWNGDHIHTNFRDMYQHLRSMGYFVEVLGAPFTCFDASQYGTLLMVDSEEEYFPEEIAKLRRDVDNGLSLVIFSDWYNTSVMRKVKFYDENTRQWWMPDTGGANIPALNELLSVWNMGFSDGLYEGEFTLANHDMYYASGCSIAKFPEDGVVITQTFKDQGLEVLKQETAVVENVPILGLYQIPAEGGGRIVLYGDSNCLDDSHRQKDCFWLLDALLQYTSYGVTPPSLSHSGNRQRPPSGAGSVTPERMEGNHLHRYSKVLEAHLGDPKPRPLPACPRLSWAKPQPLNETAPSNLWKHQKLLSIDLDKVVLPNFRSNRPQVRPLSPGESGAWDIPGGIMPGRYNQEVGQTIPVFAFLGAMVVLAFFVVQINKAKSRPKRRKPRVKRPQLMQQVHPPKTPSV
notes: also called SKI-1-V5; not shown: V5 tag
